The IC50 is the concentration needed to halve the response being measured.

Data on 22 compounds can be found in patent US9963462B2 (priority 2015, dated 2018).

Each structure is given as a SMILES string.

Assay [1] has as its target SNAP-hSPR (sepiapterin reductase, SPR) (Homo sapiens, UniProt P35270). As to the kind of experiment: biochemical. The assay is classed as binding. To be noted: terbium labelled SNAP-hSPR / SSZ labelled SNAP-EGFP; read-out: hTR-FRET IC50.
The test system of assay [2] is BH4 production in human peripheral blood mononuclear cells (PBMCs). Description: hPBMC assay, inhibition of BH4 production by LC-MS (anti-CD3/anti-CD28 stimulated). The assay is classed as cell-based. To be noted: PBMC, read-out: hPBMC IC50.

SNAP-hSPR (sepiapterin reductase, SPR), sequence (P35270 whole entry): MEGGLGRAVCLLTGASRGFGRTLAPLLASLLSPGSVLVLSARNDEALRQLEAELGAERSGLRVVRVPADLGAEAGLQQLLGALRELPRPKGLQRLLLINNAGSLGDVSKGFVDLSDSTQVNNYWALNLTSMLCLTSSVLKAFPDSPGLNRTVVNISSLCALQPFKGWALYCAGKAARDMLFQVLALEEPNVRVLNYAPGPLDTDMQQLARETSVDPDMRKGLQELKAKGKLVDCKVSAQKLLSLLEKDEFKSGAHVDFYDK

As to `Cc1c(C(=O)N2CCN(c3nc(-c4ccc(Cl)nc4)cs3)CC2)cnn1-c1nn2cccc2c(=O)[nH]1` [Q-1179], the values for the 50% inhibitory concentration (IC50) in assay [1] and in assay [2] were 2 nM and 110 nM, respectively.

As to `Cc1c(C(=O)N2CCN(c3nc(-c4ccc(F)nc4)cs3)CC2)cnn1-c1nn2cccc2c(=O)[nH]1` [Q-1180], the IC50 in assay [1] was 2 nM; in assay [2] it was 47 nM.

In the case of `Cc1c(C(=O)N2CCN(c3nc(-c4cccc(C#N)c4)cs3)CC2)cnn1-c1nn2cccc2c(=O)[nH]1` [Q-1181], the IC50 came out at 2 nM in assay [1] and 11 nM in assay [2].

In the case of `Cc1c(C(=O)N2CCN(c3nc(-c4ccncc4)cs3)CC2)cnn1-c1nn2cccc2c(=O)[nH]1` [Q-1182], the results for the IC50 in assay [1] and in assay [2] were 1 nM and 48 nM, respectively.

For the compound `Cc1c(C(=O)N2CCCN(CCC(F)(F)F)CC2)cnn1-c1nn2cccc2c(=O)[nH]1` [Q-1183], the values for the IC50 in assay [1] and in assay [2] were 4 nM and 110 nM, respectively.

As to `Cc1c(C(=O)N2CCC(C3CC3)CC2)nnn1-c1nn2cccc2c(=O)[nH]1` [Q-1184], the IC50 in assay [1] came to 2 nM; in assay [2], 37 nM.

Take `Cc1c(C(=O)N2CC(N3CCC(F)(F)C3)C2)nnn1-c1nn2cccc2c(=O)[nH]1` [Q-1185]: the IC50 in assay [1] was found to be 1 nM; in assay [2], 110 nM.

In the case of `Cc1c(C(=O)N2C[C@H]3CCC[C@@H](C2)[C@H]3CC(F)(F)F)cnn1-c1nn2cccc2c(=O)[nH]1` [Q-1186], the IC50 in assay [1] turned out to be 1 nM; in assay [2], 36 nM.

Turning to `Cc1c(C(=O)N2CCc3nc(-c4ccncc4)sc3C2)cnn1-c1nn2cccc2c(=O)[nH]1` [Q-1187], the IC50 in assay [1] came out at 4 nM; in assay [2] it was 190 nM.

Turning to `Cc1c(C(=O)N2CCN(c3nnc(-c4ccccc4Cl)o3)CC2)cnn1-c1nn2cccc2c(=O)[nH]1` [Q-1188], the values for the IC50 in assay [1] and in assay [2] were 6 nM and 290 nM, respectively.

`Cc1c(C(=O)N2CCN(c3ncc(-c4ccc(Cl)nc4)o3)CC2)nnn1-c1nn2cccc2c(=O)[nH]1` [Q-1190]: the IC50 in assay [1] is 10 nM; in assay [2] it was 59 nM.

Turning to `Cc1c(C(=O)N2CCN(C3CCC3)CC2)nnn1-c1nn2cccc2c(=O)[nH]1` [Q-1191], the IC50 came to 1 nM in assay [1] and 20 nM in assay [2].

For the compound `Cc1c(C(=O)N2CCC3(CCCC3=O)CC2)cnn1-c1nn2cccc2c(=O)[nH]1` [Q-1192], the IC50 in assay [1] was determined as 1 nM; in assay [2], 40 nM.

Take `Cc1c(C(=O)N2CCN(c3nnc(-c4cccc(F)c4)o3)CC2)cnn1-c1nn2cccc2c(=O)[nH]1` [Q-1193]: the half-maximal inhibitory concentration (IC50) in assay [1] is 7 nM; in assay [2], 160 nM.

With `Cc1c(C(=O)N2CC3CC(C2)N3CCC(F)(F)F)cnn1-c1nn2cccc2c(=O)[nH]1` [Q-1194], the IC50 stood at 2 nM in assay [1] and 60 nM in assay [2].

Turning to `Cc1c(C(=O)N2CCN(c3nc(-c4ccnc(F)c4)cs3)CC2)cnn1-c1nn2cccc2c(=O)[nH]1` [Q-1196], the IC50 in assay [1] was found to be 3 nM; in assay [2], 52 nM.

`Cc1c(C(=O)N2CCN(c3ncc(-c4ccc(F)nc4)s3)CC2)cnn1-c1nn2cccc2c(=O)[nH]1` [Q-1197]: the IC50 in assay [1] was 3 nM; in assay [2], 26 nM.

For `COCC(C1CCN(C(=O)c2cnn(-c3nn4cccc4c(=O)[nH]3)c2C)CC1)C(F)(F)F` (centres unmarked) [Q-1198], the IC50 was 1 nM in assay [1] and 17 nM in assay [2].

Regarding `Cc1c(C(=O)N2C[C@H]3CCC[C@@H](C2)[C@@H]3CC(F)(F)F)cnn1-c1nn2cccc2c(=O)[nH]1` [Q-1199], the values for the IC50 in assay [1] and in assay [2] were 1 nM and 29 nM, respectively.

Consider `Cc1c(C(=O)N2CCN(CC(F)(F)F)C3(CCC3)C2)cnn1-c1nn2cccc2c(=O)[nH]1` [Q-1200], for which the figures for the IC50 in assay [1] and in assay [2] were 1 nM and 150 nM, respectively.

Turning to `Cc1c(C(=O)N2CCN(C3CC3)CC2)nnn1-c1nn2cccc2c(=O)[nH]1` [Q-1201], the IC50 was determined as 1 nM in assay [1] and 69 nM in assay [2].

As to `Cc1c(C(=O)N2CCN(c3ncc(-c4ccc(F)cc4)o3)CC2)cnn1-c1nn2cccc2c(=O)[nH]1` [Q-1202], the IC50 in assay [1] came to 5 nM; in assay [2], 260 nM.
